The subject of this test is human embryonic stem cell line H1. The test is described as follows: Real-time PCR gene expression, BMP inhibition and PKC activation at S3 (Example 2). The test is classed as cell-based. Conditions: 50 nM compared with 200 nM at S3. The protocol:
Cells of the human embryonic stem cell line H1 were harvested at various passages (passage 40 to passage 52) and were seeded as single cells at a density of 100,000 cells/cm^2 on MATRIGEL™ (1:30 dilution) coated dishes in mTesr™1 media supplemented with 10 μM of Y27632. Forty eight hours post-seeding, cultures were differentiated into cells of the pancreatic endocrine lineage as follows: • a. Stage 1 (Definitive Endoderm (DE)—3 days): Prior to start of DE, the cultures were washed and incubated with incomplete PBS (no Mg or Ca) for 30 seconds followed by addition of the stage 1 media. Human embryonic stem cells cultured as single cells on MATRIGEL™-coated dishes were treated with MCDB-131 medium supplemented with 0.1% fatty acid-free BSA, 0.0012 g/ml sodium bicarbonate, 1× GLUTAMAX™, and 2.5 mM D-Glucose, 100 ng/ml GDF8, and […] MCX compound (GSK3B inhibitor) for one day. Cells were then treated with MCDB-131 medium supplemented with 0.1% fatty acid-free BSA, 0.0012 g/ml sodium bicarbonate, 1× GLUTAMAX™, 2.5 mM glucose, and 100 ng/ml GDF8 for days 2-3. • b. […]
mRNA was collected at S2-S4 for all the conditions listed above and analyzed using real-time PCR. […]
(Quantitative PCR measures a nucleic acid by following its amplification.)

For the compound `c1ccc2c(-c3cnn4cc(-c5ccc(N6CCNCC6)cc5)cnc34)ccnc2c1` [LDN-193189], the “induction of endocrine markers (chromogranin and NGN3)” value is listed as “as effective as 200 nM LDN-193189”.

Values taken from patent publication US12215354B2, “Differentiation of human embryonic stem cells into single hormonal insulin positive cells” (Janssen Biotech, Inc., priority 2011, dated 2025).
